Results published in PubChem BioAssay AID1645865 (Buhrlage Lab, Dana-Farber Cancer Institute and Novartis …, 2021).
The source made the active and inactive calls.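 The calls were made as follows: active = maximal inhibition of the USP30 enzyme reaching 30% or more across the dose series; inactive = the rest.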

Target: Ubiquitin carboxyl-terminal hydrolase 30 (Homo sapiens) (UniProt Q70CQ3)
Assay: inhibitors of ubiquitin-specific protease 30 deubiquitylating enzyme, concentration dependence, in vitro biochemical, validation of primary hits (AID 1645865)
Conditions: purified USP30, Ub-rhodamine cleavage, fluorescence, 2 h

Ubiquitin carboxyl-terminal hydrolase 30 (Homo sapiens), sequence (Q70CQ3 whole entry, looked up): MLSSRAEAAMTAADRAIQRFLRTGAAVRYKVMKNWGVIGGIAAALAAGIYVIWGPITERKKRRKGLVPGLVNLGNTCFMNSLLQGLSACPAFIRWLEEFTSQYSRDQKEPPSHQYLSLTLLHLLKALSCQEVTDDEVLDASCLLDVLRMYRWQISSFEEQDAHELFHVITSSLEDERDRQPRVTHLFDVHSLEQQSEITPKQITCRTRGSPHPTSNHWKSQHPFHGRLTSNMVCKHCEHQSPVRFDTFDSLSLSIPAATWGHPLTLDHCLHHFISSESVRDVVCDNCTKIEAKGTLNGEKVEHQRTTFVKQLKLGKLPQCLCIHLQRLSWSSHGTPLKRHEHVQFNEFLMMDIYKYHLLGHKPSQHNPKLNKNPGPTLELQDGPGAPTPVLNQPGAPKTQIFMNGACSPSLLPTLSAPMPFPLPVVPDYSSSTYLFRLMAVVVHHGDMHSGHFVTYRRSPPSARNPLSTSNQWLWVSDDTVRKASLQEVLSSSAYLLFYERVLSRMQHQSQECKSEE

SMILES | IC50
CC(C)CC(NC(=O)c1ccc(Cl)cc1Cl)c1nc2ccccc2[nH]1 (stereo not drawn) | > 50 µM (inactive)
CCc1cccc(CC)c1NC(=O)COC(=O)c1cc2cccc(OC)c2oc1=O | 39.5 µM
c1ccc(-n2nnc(-c3noc(-c4cccnc4)n3)c2-c2ccncc2)cc1 | 25.9 µM
COc1ccccc1CNC(=O)CCCCn1c(=O)c2ccccc2n(Cc2ccccc2C#N)c1=O | 15.1 µM
Cc1ccc(C)c(NC(=O)CCc2nc(CSc3nc4ccccc4o3)no2)c1 | 23.8 µM
O=C1CC(c2cc3c(cc2Br)OCO3)c2cc3c(cc2N1)OCCO3 (stereo not drawn) | 19.2 µM
Cc1ccc(-n2c(-c3ccccc3)cn3c4c(=O)[nH]c(=O)n(C)c4nc23)cc1C | 0.286 µM
CN1C(=O)[C@]23CC4=CC=C[C@H](O)[C@H]4N2C(=O)[C@@]1(CO)SS3 | 3.78 µM
CC1=C(C(=O)Nc2ccccc2C)C(c2ccc(OCc3ccccc3F)cc2)n2ncnc2N1 (stereo not drawn) | 30.6 µM
Cc1cccc(NC(=O)Nc2nnc(CC(=O)NCc3ccccc3)s2)c1 | 6.01 µM
Cc1c(-c2nc(-c3ccccc3Cl)no2)nnn1-c1cccc(F)c1 | 4.07 µM
CCOc1ccc(S(=O)(=O)Nc2ccc[nH]c2=O)cc1 | > 50 µM (inactive)
Cc1ccc2cc(CNc3ccccc3)c(=O)n(CC(=O)Nc3ccccc3C)c2c1 | 40.7 µM
FC(F)(F)c1cccc(Nc2nnc(-c3cccnc3)s2)c1 | 2.76 µM
COc1cccc(-n2ccc(=O)c(-c3nc(-c4ccccc4Cl)no3)n2)c1 | > 50 µM (inactive)
Cc1ccccc1-c1nnc(-c2ccc(C(=O)NCc3ccccc3F)cc2)o1 | 3.32 µM
CC(C)(C)c1ccc(C(=O)Nc2ccc(Oc3cccnc3)nc2)cc1 | > 50 µM (inactive)
CC1=C[C@H]2N(c3ccc(C)cc31)[C@H](C(=O)c1cccs1)[C@@H](C(=O)c1ccc(F)cc1)[C@]21C(=O)Nc2ccccc21 | > 50 µM (inactive)
CC(CCc1ccccc1)NC(=O)Cn1c(=O)c2cccn2c2ccccc21 (stereo not drawn) | 4.37 µM
Cc1cc(C)cc(N(CCC(=O)Nc2ccc(N3CCOCC3)cc2)S(=O)(=O)c2ccc(Cl)cc2)c1 | 12.3 µM
O=C(CCCn1c(=O)[nH]c2cc(Cl)ccc2c1=O)N1CCc2ccccc2C1 | 35.4 µM
O=C(NC1CCN(Cc2ccccc2)CC1)c1[nH]nc2c1COc1ccccc1-2 | > 50 µM (inactive)
O=C(CCC1CCCCC1)Nc1ccccc1C(=O)N1CCOCC1 | > 50 µM (inactive)

SMILES | IC50
O=C(Nc1nnc2n1CCCS2)c1cccc(Cl)c1 | > 50 µM (inactive)
Cc1nn(-c2ccccc2)c2c1N=C1C(Cl)=CC(Cl)=CN1C21C(=O)Nc2ccccc21 (stereo not drawn) | > 50 µM (inactive)
Cc1ccccc1Cn1cc(SCC(=O)Nc2ccc3c(c2)OCCO3)c2ccccc21 | > 50 µM (inactive)
COc1ccc(Cl)cc1NC(=O)Cn1c(=O)cc(C)c2c(C)nn(-c3ccccc3)c21 | 1.99 µM
O=C(Cn1c(=O)n(CC(=O)NC2CCCC2)c(=O)c2ccccc21)Nc1cc(Cl)ccc1Cl | 2.42 µM
COc1cccc(-n2c(CNCc3cccnc3)nc3ccc([N+](=O)[O-])cc3c2=O)c1 | 25.2 µM
CC1(C)C[C@@H](O)[C@]2(C)CC[C@]3(C)C(=CCC4[C@@]5(C)CC[C@H](O)[C@](C)(CO)[C@@H]5CC[C@]43C)[C@@H]2C1 (stereo partly drawn) | 3.18 µM
Clc1cc2nc(N3CCN(c4ccccn4)CC3)c3nncn3c2cc1Cl | 2.16 µM
C=C1CCC2[C@](C)(CCC[C@]2(C)C(=O)OC)[C@H]1CCc1ccoc1/C=C/C(=O)O (stereo partly drawn) | > 50 µM (inactive)
COC(=O)[C@]1(O)O[C@@]2(C(=O)OC)c3c(oc4cc(C)cc(O)c4c3=O)[C@H]3c4c(oc5cc(C)cc(O)c5c4=O)C[C@H]1[C@H]32 | > 50 µM (inactive)
O=C(Nc1ccc2c(c1)OCO2)c1[nH]nc2c1CCc1ccccc1-2 | > 50 µM (inactive)
CC(C)=CCCC1(C)OC2=C(C(=O)c3cc(O)cc(O)c3C2=O)[C@H]2C=C(C)CC[C@H]21 (stereo partly drawn) | > 50 µM (inactive)
O=C(Cn1c(CSc2ccccc2)nc2ccccc21)Nc1ccccc1F | > 50 µM (inactive)
O=C(CN1C(=O)NC2(CCCCC2)C1=O)Nc1ccc([N+](=O)[O-])cc1 | 33.5 µM
O=C(Nc1cccc(Cl)c1)N1CCN(c2cc(C(F)(F)F)ccn2)CC1 | 8.77 µM
Cc1ccc(NC(=O)c2sc3ncn(CC(=O)N4CCN(c5ccccn5)CC4)c(=O)c3c2C)c(Br)c1 | 8.36 µM
Cc1cc(NC(=O)Cn2c(=O)n(CCCCC(=O)NCc3ccco3)c(=O)c3ccccc32)ccc1Br | 2.09 µM
COc1ccccc1-c1ccc(SCC(=O)Nc2ccc3c(c2)OCCO3)nn1 | > 50 µM (inactive)
Cc1nc2sc(C(=O)Nc3ccccc3Br)c(N)c2c(C)c1C | 1.2 µM
CC1CCN(C(=O)c2cn(-c3cc(N4CCC(C)CC4)ncn3)cn2)CC1 | > 50 µM (inactive)
Cc1cc(=O)n(C)c2c(O)c3c(cc12)c(C)cc(=O)n3C | > 50 µM (inactive)
COc1ccc(-c2cc3nc([C@H](C)NC(=O)Cc4cccc(F)c4)nn3cn2)cc1 | 3.92 µM
Cc1c(C(=O)Nc2cccc(C(F)(F)F)c2)cnn1-c1ccccn1 | 36 µM

SMILES | IC50
O=C(NCc1ccccc1)c1ccc(-c2ccc(N3CCCC3)nn2)cc1 | > 50 µM (inactive)
CCc1ccc(-n2c(=O)c3ccccc3n(CC(=O)NCCC3=CCCCC3)c2=O)cc1 | 6.68 µM
CC(C)NS(=O)(=O)c1ccc(CCC(=O)Nc2ccc3c(c2)OCCO3)cc1 | 37.8 µM
O=C(CN1C(=O)c2ccccc2Sc2ccc(C(=O)N3CCCC3)cc21)Nc1ccccc1Cl | > 50 µM (inactive)
Cc1ccc(C(=O)Nc2nc3n(n2)C(c2ccccc2)CC(=O)N3)cc1 (stereo not drawn) | 24.4 µM
COc1ccccc1CNC(=O)CCCn1c(=O)c2ccccc2n(CC(=O)N2CCN(c3ccccc3)CC2)c1=O | 34.8 µM
COc1ccc(NC(=O)Cn2cc(C(=O)c3ccc(F)cc3)c(=O)c3cc(C)ccc32)cc1 | 20.7 µM
CSc1cccc(NC(=O)COc2cccc3ccccc23)c1 | 1.46 µM
COc1ccc(NC(=O)c2nnn(-c3ccccc3F)c2C)cc1OC | > 50 µM (inactive)
O=c1ccc(-c2noc(-c3ccc4cc[nH]c4c3)n2)c[nH]1 | > 50 µM (inactive)
CCOC(=O)c1cccc(NC(=O)Nc2cccn3nc(C)nc23)c1 | > 50 µM (inactive)
COc1ccc(C(=O)Nc2nc(-c3ccc4c(c3)NC(=O)CO4)c(C)s2)cc1OC | 1.68 µM
CS(=O)(=O)N1CCCc2cc(C(=O)Nc3ccc4c(c3)OCO4)ccc21 | > 50 µM (inactive)
Nc1c(C(=O)NCc2ccc3c(c2)OCO3)nnn1Cc1ccc(Br)cc1F | 2.35 µM
CCOc1ccc(NC(=O)Cn2c(=O)n(CCCCCC(=O)NCc3ccc(F)cc3)c(=O)c3sccc32)cc1 | 1.44 µM
CCOc1cc(C2C3=C(CC(C)(C)CC3=O)Nc3onc(C)c32)ccc1O (stereo not drawn) | 37.3 µM
Cc1ccc(CNC(=O)CCCn2c(=O)c3sccc3n(CC(=O)OCc3ccccc3)c2=O)cc1 | 2 µM
CCOC(=O)c1sc2c(c1C)c(=O)n(Cc1ccccc1)c(=O)n2CC(N)=O | 45.5 µM
Cc1ccccc1OCCC(=O)Nc1cccc(S(=O)(=O)Nc2ccccc2Cl)c1 | > 50 µM (inactive)
Cc1nnc(C(=O)Nc2ccc(C(=O)NCc3ccccc3C)cc2)s1 | 26.8 µM
COc1ccc(OC)c(NC(=O)Cn2c(=O)n(CC3CCC(C(=O)NCCc4ccccc4)CC3)c(=O)c3ccccc32)c1 (stereo not drawn) | 1.77 µM
FC(F)(F)c1cccc(N2CCN(c3nc4ccccc4n4nnnc34)CC2)c1 | > 50 µM (inactive)
